“And” between values parts separate entries of the source, which are not always exact repeats. Equal entries are not always repeated. Inconclusive results are not listed.
Test system: BDF1 mice, colon carcinoma 38 sc, T/C %
Experiment: NCI In Vivo Anticancer Drug Screen. Data for tumor model Colon Carcinoma 38 (subcutaneous) in B6D2F1 (BDF1) mice
Details: endpoint: median tumor weight (est.), higher = larger tumour
How it was run: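 Ratio of survival or tumor size, compound-treated animals relative to vehicle controls, in tumor-bearing mice.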

[1] = dose: 12.5 mg/kg/injection, schedule: Q07DX002 (ip), vehicle: suspension in saline
[2] = dose: 25.0 mg/kg/injection, schedule: Q07DX002 (ip), vehicle: suspension in saline
[3] = dose: 25.0 mg/kg/injection, schedule: Q07DX003 (ip), vehicle: saline
[4] = dose: 50.0 mg/kg/injection, schedule: Q07DX003 (ip), vehicle: saline
[5] = dose: 12.5 mg/kg/injection, schedule: Q07DX003 (ip), vehicle: saline
[6] = dose: 12.5 mg/kg/injection, schedule: Q07DX002 (ip), vehicle: saline
[7] = dose: 25.0 mg/kg/injection, schedule: Q07DX002 (ip), vehicle: saline

Structure (SMILES): O=CC(S)CO (configuration not stated)
- T/C [1]: 76 % of control
- T/C [2]: 95 % of control
- T/C (dose: 50.0 mg/kg/injection, schedule: Q07DX002 (ip), vehicle: suspension in saline): 113 % of control
- T/C (dose: 200.0 mg/kg/injection, schedule: Q07DX002 (ip), vehicle: suspension in saline): 97 % of control

Structure (SMILES): CCN(CC)CC(C)(C)C(=O)/C=C/c1ccccc1
- T/C (dose: 62.5 mg/kg/injection, schedule: Q07DX002 (ip), vehicle: saline): 102 % of control
- T/C (dose: 125.0 mg/kg/injection, schedule: Q07DX002 (ip), vehicle: saline): 52 % of control

Structure (SMILES): CCC(c1ccc(OC(=O)Cc2ccc(N(CCCl)CCCl)cc2)cc1)C(CC)c1ccc(OC(=O)Cc2ccc(N(CCCl)CCCl)cc2)cc1 (configuration not stated)
- T/C (dose: 9.38 mg/kg/injection, schedule: Q07DX002 (ip), vehicle: saline with Tween-80): 120 % of control
- T/C (dose: 18.7 mg/kg/injection, schedule: Q07DX002 (ip), vehicle: saline with Tween-80): 92 % of control
- T/C (dose: 37.5 mg/kg/injection, schedule: Q07DX002 (ip), vehicle: saline with Tween-80): 33 % of control
- T/C (dose: 75.0 mg/kg/injection, schedule: Q07DX002 (ip), vehicle: saline with Tween-80): 46 % of control
- T/C (dose: 300.0 mg/kg/injection, schedule: Q07DX002 (ip), vehicle: saline with Tween-80): 51 % of control and 61 % of control
- T/C (dose: 600.0 mg/kg/injection, schedule: Q07DX002 (ip), vehicle: saline with Tween-80): 51 % of control and 61 % of control

Structure (SMILES): Cc1cn(C2CC(O)C(CO)O2)c(=O)[nH]c1=O (configuration not stated)
- T/C [3]: 54 % of control and 79 % of control
- T/C (dose: 50.0 mg/kg/injection, schedule: Q03HX024 (ip), vehicle: saline): 95 % of control
- T/C [4]: 76 % of control
- T/C (dose: 100.0 mg/kg/injection, schedule: Q03HX024 (ip), vehicle: saline): 98 % of control
- T/C (dose: 200.0 mg/kg/injection, schedule: Q03HX024 (ip), vehicle: saline): 66 % of control
- T/C (dose: 200.0 mg/kg/injection, schedule: Q07DX003 (ip), vehicle: saline): 90 % of control
- T/C (dose: 400.0 mg/kg/injection, schedule: Q03HX024 (ip), vehicle: saline): 122 % of control
- T/C (dose: 400.0 mg/kg/injection, schedule: Q07DX003 (ip), vehicle: saline): 89 % of control and 101 % of control

Structure (SMILES): CC[C@](O)(C(=O)O)c1cc2n(c(=O)c1CO)Cc1cc3ccccc3nc1-2
- T/C (dose: 6.25 mg/kg/injection, schedule: Q07DX003 (ip), vehicle: saline): 48 % of control and 62 % of control
- T/C [5]: 38 % of control and 60 % of control
- T/C [3]: 34 % of control and 41 % of control and 54 % of control
- T/C [4]: 23 % of control and 26 % of control and 45 % of control
- T/C (dose: 100.0 mg/kg/injection, schedule: Q07DX003 (ip), vehicle: saline): 9 % of control

Structure (SMILES): CCCCCCCCCCCCCCCC(=O)OCC1OC(n2ccc(N)nc2=O)C(O)C1O (configuration not stated)
- T/C (dose: 25.0 mg/kg/injection, schedule: Q07DX002 (ip), vehicle: saline with Tween-80): 72 % of control
- T/C (dose: 50.0 mg/kg/injection, schedule: Q07DX002 (ip), vehicle: saline with Tween-80): 36 % of control
- T/C (dose: 100.0 mg/kg/injection, schedule: Q07DX002 (ip), vehicle: saline with Tween-80): 7 % of control

Structure (SMILES): CC(C)CC(NC(=O)C(O)C(N)Cc1ccccc1)C(=O)O (configuration not stated)
- T/C (dose: 10.0 micrograms/mouse/injection, schedule: Q10HX006 (ip), vehicle: saline): 85 % of control
- T/C (dose: 10.0 micrograms/mouse/injection, schedule: Q10HX010 (oral), vehicle: saline): 74 % of control
- T/C (dose: 100.0 micrograms/mouse/injection, schedule: Q10HX006 (ip), vehicle: saline): 50 % of control
- T/C (dose: 100.0 micrograms/mouse/injection, schedule: Q10HX010 (oral), vehicle: saline): 62 % of control

Structure (SMILES): Oc1ccc(SCc2ccc(NCc3ccccc3)cc2)cc1
- T/C (dose: 12.5 mg/kg/injection, schedule: Q07DX002 (ip), vehicle: DMSO): 75 % of control
- T/C (dose: 25.0 mg/kg/injection, schedule: Q07DX002 (ip), vehicle: DMSO): 82 % of control
- T/C (dose: 50.0 mg/kg/injection, schedule: Q07DX002 (ip), vehicle: DMSO): 85 % of control
- T/C (dose: 100.0 mg/kg/injection, schedule: Q07DX002 (ip), vehicle: DMSO): 109 % of control
- T/C (dose: 200.0 mg/kg/injection, schedule: Q07DX002 (ip), vehicle: DMSO): 82 % of control

Structure (SMILES): CCOC(=O)NC1=C(N2CC2)C(=O)C(NC(=O)OCC)=C(N2CC2)C1=O
- T/C (dose: 0.78 mg/kg/injection, schedule: Q07DX002 (ip), vehicle: saline): 98 % of control
- T/C (dose: 0.78 mg/kg/injection, schedule: Q07DX002 (ip), vehicle: suspension in saline): 102 % of control
- T/C (dose: 1.56 mg/kg/injection, schedule: Q07DX002 (ip), vehicle: saline): 94 % of control
- T/C (dose: 1.56 mg/kg/injection, schedule: Q07DX002 (ip), vehicle: suspension in saline): 95 % of control
- T/C (dose: 3.13 mg/kg/injection, schedule: Q07DX002 (ip), vehicle: suspension in saline): 95 % of control
- T/C (dose: 6.25 mg/kg/injection, schedule: Q07DX002 (ip), vehicle: saline): 77 % of control
- T/C (dose: 6.25 mg/kg/injection, schedule: Q07DX002 (ip), vehicle: suspension in saline): 85 % of control
- T/C [6]: 69 % of control
- T/C [7]: 12 % of control
- T/C [3]: 32 % of control

Structure (SMILES): N#CC(OC1OC(COC2OC(CO)C(O)C(O)C2O)C(O)C(O)C1O)c1ccccc1 (configuration not stated)
- T/C (dose: 50.0 mg/kg/injection, schedule: Q07DX002 (ip), vehicle: water): 98 % of control
- T/C (dose: 100.0 mg/kg/injection, schedule: Q07DX002 (ip), vehicle: water): 87 % of control
- T/C (dose: 200.0 mg/kg/injection, schedule: Q07DX002 (ip), vehicle: water): 112 % of control
- T/C (dose: 400.0 mg/kg/injection, schedule: Q07DX002 (ip), vehicle: water): 102 % of control
- T/C (dose: 1600.0 mg/kg/injection, schedule: Q07DX002 (ip), vehicle: water): 91 % of control

Structure (SMILES): ClC1=C(Cl)C2(Cl)C3C(Cl)C(Cl)CC3C1(Cl)C2(Cl)Cl (configuration not stated)
- T/C (dose: 9.5 mg/kg/injection, schedule: Q07DX002 (ip), vehicle: saline with Tween-80): 103 % of control
- T/C (dose: 19.0 mg/kg/injection, schedule: Q07DX002 (ip), vehicle: saline with Tween-80): 114 % of control
- T/C (dose: 28.0 mg/kg/injection, schedule: Q07DX002 (ip), vehicle: saline + Tween-80 + alcohol): 102 % of control
- T/C (dose: 28.0 mg/kg/injection, schedule: Q07DX002 (ip), vehicle: saline with Tween-80): 100 % of control
- T/C (dose: 50.0 mg/kg/injection, schedule: Q07DX002 (ip), vehicle: other): 63 % of control and 86 % of control
- T/C (dose: 56.0 mg/kg/injection, schedule: Q07DX002 (ip), vehicle: saline + Tween-80 + alcohol): 86 % of control
- T/C (dose: 56.0 mg/kg/injection, schedule: Q07DX002 (ip), vehicle: saline with Tween-80): 92 % of control and 93 % of control
- T/C (dose: 100.0 mg/kg/injection, schedule: Q07DX002 (ip), vehicle: other): 84 % of control
- T/C (dose: 112.0 mg/kg/injection, schedule: Q07DX002 (ip), vehicle: saline with Tween-80): 100 % of control

Structure (SMILES): COc1cc2cc[n+](C)c(Cc3ccccc3)c2cc1OC
- T/C [5]: 113 % of control
- T/C [3]: 84 % of control
- T/C [4]: 80 % of control

Structure (SMILES): CC1=NNC(=O)C1CCO (configuration not stated)
- T/C (dose: 25.0 mg/kg/injection, schedule: Q07DX002 (ip), vehicle: Klucel (hydroxypropylcellulose) (HPC)): 97 % of control
- T/C (dose: 50.0 mg/kg/injection, schedule: Q07DX002 (ip), vehicle: Klucel (hydroxypropylcellulose) (HPC)): 95 % of control
- T/C (dose: 100.0 mg/kg/injection, schedule: Q07DX002 (ip), vehicle: Klucel (hydroxypropylcellulose) (HPC)): 69 % of control
- T/C (dose: 200.0 mg/kg/injection, schedule: Q07DX002 (ip), vehicle: Klucel (hydroxypropylcellulose) (HPC)): 72 % of control
- T/C (dose: 400.0 mg/kg/injection, schedule: Q07DX002 (ip), vehicle: Klucel (hydroxypropylcellulose) (HPC)): 55 % of control
- T/C (dose: 800.0 mg/kg/injection, schedule: Q07DX002 (ip), vehicle: Klucel (hydroxypropylcellulose) (HPC)): 77 % of control

Structure (SMILES): O=C(/C=C(\Cl)C(=O)NO)NO
- T/C [6]: 154 % of control
- T/C [1]: 82 % of control
- T/C [7]: 159 % of control
- T/C [2]: 101 % of control
- T/C (dose: 50.0 mg/kg/injection, schedule: Q07DX002 (ip), vehicle: saline): 175 % of control
- T/C (dose: 100.0 mg/kg/injection, schedule: Q07DX002 (ip), vehicle: saline): 119 % of control
- T/C (dose: 100.0 mg/kg/injection, schedule: Q07DX002 (ip), vehicle: suspension in saline): 94 % of control
